The values that follow come from ChEMBL document CHEMBL4808216, “Gut-Restricted Selective Cyclooxygenase-2 (COX-2) Inhibitors for Chemoprevention of Colorectal Cancer” (J Med Chem, 2021).

The nature of data set [1]: Protein binding in human colon assessed as unbound fraction. The data set is classed as ADME, tissue-based.
Data set [2] deals with T1, Prostaglandin G/H synthase 1 (Homo sapiens, UniProt P23219). Kind of data set: Inhibition of COX1 (unknown origin) expressed in HEK293 TRex cells assessed as reduction in PGE2 production using arachidonic acid as substrate preincubated for 60 mins followed by substrate addition for 1 hr in presence of 10% FBS by RapidFire High-Throughput Mass Spectrometry. The data set is classed as ADME, cell-based, HEK293-T-REx.

Data set [3] can be described thus: Oral bioavailability in Cynomolgus monkey at 10 mg/kg measured up to 24 hrs by LC-MS analysis. The data set is classed as ADME, organism-based, Macaca fascicularis. The settings on record: in vivo.
A short description of data set [4]: Drug concentration in C57BL/6J mouse plasma at 10 mg/kg, po administered as cassette dose measured at 4 hrs by LC/MS/MS analysis. The data set is classed as ADME, organism-based.
In data set [5] the test system is Mus musculus. Description: Chemo-protective activity in C57BL/6J mouse model of spontaneous GI-tract tumor Apc-min assessed as 18F-FDG uptake in ileum at 300 mg/kg, po incorporated into chow diet administered daily for 2 weeks and measured after 14 days by ex vivo PET imaging analysis relative to control. The data set is classed as functional.
In data set [6] the test system is Mus musculus. Description: Chemo-protective activity in po dosed C57BL/6J mouse model of spontaneous GI-tract tumor Apc-min assessed as reduction in 18F-FDG uptake in ileum incorporated into chow diet administered daily for 2 weeks and measured after 14 days by ex vivo PET imaging analysis. The format is functional, organism-based.
For data set [7], the target named is T1, Prostaglandin G/H synthase 1. Kind of data set: Inhibition of COX1 in human whole blood assessed as reduction in calcium ionophore-stimulated TXB2 production incubated for 1 hr by ELISA. The data set is classed as tissue-based. In general terms: In an ELISA, binding on a coated surface is turned into a signal by an enzyme label.
In data set [8] the target is T2, Prostaglandin G/H synthase 2 (Homo sapiens, UniProt P35354).
T2 sequence (P35354 whole entry): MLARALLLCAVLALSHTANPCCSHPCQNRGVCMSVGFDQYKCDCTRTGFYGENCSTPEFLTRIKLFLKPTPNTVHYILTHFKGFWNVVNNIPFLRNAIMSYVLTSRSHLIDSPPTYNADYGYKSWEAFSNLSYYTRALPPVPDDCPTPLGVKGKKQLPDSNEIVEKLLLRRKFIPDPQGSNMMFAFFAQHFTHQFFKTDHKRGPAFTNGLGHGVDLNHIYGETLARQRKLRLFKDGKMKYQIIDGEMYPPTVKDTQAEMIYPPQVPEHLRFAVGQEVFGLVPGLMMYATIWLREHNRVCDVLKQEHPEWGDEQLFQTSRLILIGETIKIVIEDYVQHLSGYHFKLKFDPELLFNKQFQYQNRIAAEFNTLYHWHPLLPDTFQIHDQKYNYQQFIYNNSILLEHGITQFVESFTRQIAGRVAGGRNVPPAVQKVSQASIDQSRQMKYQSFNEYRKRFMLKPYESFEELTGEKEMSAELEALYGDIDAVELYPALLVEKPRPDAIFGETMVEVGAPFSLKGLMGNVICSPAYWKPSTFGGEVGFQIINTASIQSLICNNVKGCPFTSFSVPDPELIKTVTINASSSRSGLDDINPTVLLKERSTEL
Description: Inhibition of human recombinant COX-2 using arachidonic acid as substrate preincubated for 60 mins followed by substrate addition for 2 secs by ADPH based fluorometric analysis.

For data set [9], the target named is T3, Prostaglandin G/H synthase 2 (Homo sapiens) (UniProt P35354).
T3 sequence (whole entry): T2 sequence (P35354 whole entry)
Description: Protein occupancy at human recombinant COX-2 assessed as dissociation half life

Data set [10] has as its target T4, Prostaglandin G/H synthase 2 (Mus musculus, UniProt Q05769).
T4 sequence (Q05769 whole entry): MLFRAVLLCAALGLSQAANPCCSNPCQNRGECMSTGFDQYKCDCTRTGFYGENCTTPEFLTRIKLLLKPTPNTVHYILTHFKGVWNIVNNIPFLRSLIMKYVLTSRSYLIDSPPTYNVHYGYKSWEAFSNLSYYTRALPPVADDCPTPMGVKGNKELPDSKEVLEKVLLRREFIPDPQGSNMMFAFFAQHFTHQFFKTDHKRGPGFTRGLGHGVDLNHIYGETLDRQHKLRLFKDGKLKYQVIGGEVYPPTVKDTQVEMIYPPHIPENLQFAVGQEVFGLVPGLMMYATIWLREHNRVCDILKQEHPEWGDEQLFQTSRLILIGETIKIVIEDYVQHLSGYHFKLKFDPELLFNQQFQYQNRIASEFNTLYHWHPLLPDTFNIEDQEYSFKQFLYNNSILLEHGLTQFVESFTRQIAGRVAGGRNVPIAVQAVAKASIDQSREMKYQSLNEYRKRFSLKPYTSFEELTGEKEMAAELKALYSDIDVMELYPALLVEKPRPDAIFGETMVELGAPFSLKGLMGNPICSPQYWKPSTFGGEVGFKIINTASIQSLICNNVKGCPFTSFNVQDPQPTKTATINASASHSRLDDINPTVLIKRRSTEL
Description: In vivo inhibition of COX2 in po dosed C57BL/6J mouse model of spontaneous GI-tract tumor Apc-min assessed as chemopreventive effect by measuring reduction in polyp area and relevant ileum exposures. The format is functional, organism-based.

Data set [11] deals with Mus musculus. Description: Antitumor activity in C57BL/6J mouse model of spontaneous GI-tract tumor Apc-min assessed as reduction in total ileum polyp number at 30 to 300 mg/kg, po administered as suspension for 10 weeks. To be noted: dose 30-300 mg/kg. The format is functional, organism-based.
The nature of data set [12]: Drug concentration in C57BL/6J mouse colon at 10 mg/kg, po administered as cassette dose measured at 4 hrs by LC/MS/MS analysis. The data set is classed as ADME, organism-based. To be noted: read-out: Ct.
A short description of data set [13]: Oral bioavailability in dog at 10 mg/kg measured up to 24 hrs by LC-MS analysis. The data set is classed as ADME, organism-based, Canis lupus familiaris. To be noted: in vivo.
Data set [14] deals with T2, Prostaglandin G/H synthase 2. Kind of data set: Inhibition of COX2 in human whole blood assessed as reduction in LPS stimulated PGE2 production incubated for 1 hr by ELISA. The format is tissue-based.
Data set [15] has as its target T1, Prostaglandin G/H synthase 1. Kind of data set: Inhibition of human recombinant COX-1 assessed as reduction in peroxidase activity using arachidonic acid as substrate preincubated for 60 mins followed by substrate addition for 2 secs by ADPH based fluorometric analysis. The data set is classed as ADME.
A short description of data set [16]: Drug concentration in C57BL/6J mouse portal vein plasma at 10 mg/kg, po administered as cassette dose measured at 4 hrs by LC/MS/MS analysis. The format is ADME, organism-based.
A short description of data set [17]: Clearance in C57BL/6J mouse at 2 mg/kg, iv measured after 0.08 to 24 hrs. The format is ADME, organism-based. To be noted: in vivo, time 0.08-24 hrs.
Data set [18] in a line: Half life in human hepatocytes. The format is ADME, cell-based, Hepatocyte.
In data set [19] the test system is Mus musculus. Description: Antitumor activity in C57BL/6J mouse model of spontaneous GI-tract tumor Apc-min assessed as mouse survival at 30 mg/kg, po administered daily as suspension and measured at day 82 by Kaplan-Meier method. The format is functional.
Data set [20] has as its target T2, Prostaglandin G/H synthase 2. Description: Inhibition of COX2 (unknown origin) expressed in HEK293 TRex cells assessed as reduction in PGE2 production using arachidonic acid as substrate preincubated for 60 mins followed by substrate addition for 1 hr in presence of 10% FBS by RapidFire High-Throughput Mass Spectrometry. The data set is classed as cell-based, HEK293-T-REx.

Data set [21] can be described thus: Oral bioavailability in Sprague Dawley rat at 10 mg/kg measured up to 24 hrs by LC-MS analysis. The settings on record: in vivo. The format is ADME, organism-based.
A short description of data set [22]: Half life in mouse liver microsomes. The format is ADME, Microsome. On the technique in general: Liver microsomes are a subcellular fraction often used to study metabolism.
A further data set in a line: in vivo. The settings on record: C57BL/6J, mouse, colon / portal vein plasma, po, 10 mg/kg.

Molecules are shown by their SMILES. Active and inactive are the calls of the source.

T1 sequence (P23219 whole entry): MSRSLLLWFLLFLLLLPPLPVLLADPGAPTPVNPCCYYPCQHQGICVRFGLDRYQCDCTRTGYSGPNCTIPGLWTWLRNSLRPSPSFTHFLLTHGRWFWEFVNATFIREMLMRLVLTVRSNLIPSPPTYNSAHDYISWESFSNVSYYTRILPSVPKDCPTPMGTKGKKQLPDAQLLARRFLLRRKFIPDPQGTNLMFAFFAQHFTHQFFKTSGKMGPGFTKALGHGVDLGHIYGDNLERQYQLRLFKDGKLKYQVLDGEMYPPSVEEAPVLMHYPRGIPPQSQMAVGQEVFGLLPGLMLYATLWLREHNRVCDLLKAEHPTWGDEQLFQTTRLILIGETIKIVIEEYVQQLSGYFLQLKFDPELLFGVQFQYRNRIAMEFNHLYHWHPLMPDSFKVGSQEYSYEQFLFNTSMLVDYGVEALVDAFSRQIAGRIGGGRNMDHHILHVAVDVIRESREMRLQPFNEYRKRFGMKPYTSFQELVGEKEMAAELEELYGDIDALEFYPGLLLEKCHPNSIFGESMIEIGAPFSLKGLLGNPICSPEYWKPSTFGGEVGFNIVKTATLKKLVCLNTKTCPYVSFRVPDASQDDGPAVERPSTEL
Description for in vivo: Ratio of drug concentration in C57BL/6J mouse colon to portal vein plasma at 10 mg/kg, po measured after 4 hr by liquid chromatographic triple-quadrupole mass spectrometric method

For `CCCOc1nc(OCC(C)(C)O)c(-c2ccc(S(C)(=O)=O)cc2)cc1CO`, in [1], the fraction unbound was determined as 0.066. Moreover, the IC50 in [2] is greater than 50 µM; in data set [7], 193 µM; in [10], 2.38 µM; in [14], 2.34 µM; in data set [15], greater than 50 µM; in data set [20], 0.6 µM. Further, the values for the bioavailability in data set [3], in [13] and in [21] were 20%, 79.5% and 2.3%, respectively. Further, the values for the concentration at 4 h in data set [4], in data set [12] and in data set [16] were 5.7 ng/mL, 5340 ng/g and 98.6 ng/mL, respectively. Also, the Activity with Mus musculus [5] is reported as 35.6%. In addition, the outcome with Mus musculus [6] and in the data set on Mus musculus [11] was Active. Moreover, the Ki in [8] was 0.114 µM. This molecule also registered a T1/2 in [9] of 534 min. This molecule returned a clearance in [17] of 92.7 mL/min/kg. Further, the half-life came out at 3.1 min in data set [18] and 19.6 min in data set [22]. In addition, the Survival in the data set on Mus musculus [19] was greater than 82 days. In “in vivo”, the Kp at 4 h was 38.

By fraction unbound is commonly meant free concentration divided by total concentration. As a reminder, the IC50 is the concentration at which inhibition is half-maximal. By bioavailability is commonly meant the share of a dose that reaches the circulation, judged against a reference dose that is usually intravenous. Broadly, the Ki is the dissociation constant of the complex between target and ligand, obtained from inhibition or displacement. In general, clearance refers to a measure of how efficiently the substance is removed, as volume per time. A word on the half-life: it is the time needed for the level to fall by half in the phase considered. In general, Kp refers to tissue or fluid exposure divided by exposure in the circulation.
